# Data as given in patent publication US7919329B2, “Method for screening for agents that affect food intake” (Oregon Health & Science University, priority 2001, dated 2011).
# Read-outs that look alike come from different tables or passages of the source. No end group written: not given here.
# Columns and labels:
# POMC neurons [1] = assay: Action potential frequency / firing rate of POMC neurons (whole cell and loose cell-attached); assay type: cell-based, mouse; settings: for POMC neuron firing rate (frequency of action potentials): fenfluramine 20 μM, loose-cell-attached, n=3
# POMC neurons [2] = assay: GABAergic IPSCs recorded in POMC neurons of ARC slices; assay type: cell-based, mouse
# POMC neurons [3] = assay: Whole cell recordings of membrane potential of EGFP-labeled POMC neurons in arcuate (ARC) slices; assay type: cell-based, mouse
# [4] = system: non-POMC neurons in the arcuate nucleus; assay: Membrane potential of non-fluorescent (non-POMC) neurons in the arcuate nucleus; assay type: cell-based, mouse; settings: 13 cells tested; also hyperpolarized 5 and depolarized 3
# POMC neurons [5] = assay: I-V relationships of drug-induced currents in POMC neurons; assay type: cell-based, mouse; settings: leptin 100 nM, slow voltage ramps
# hypothalamic explants = hypothalamic explants (Batterham et al.); cited from earlier work
molecule,measurement,setting,value
"ghrelin: agent known to increase feeding, caloric intake, and appetite, and decrease energy expenditure (GSSFLSPEHQRVQQRKESKKPPAKLQPR; ends and bridges not checked; UniProt Q9UBU3 24-51, looked up)",decrease of action potential firing rate of POMC neurons,"POMC neurons [1]; ghrelin 50 nM, loose cell attached mode",50%
same,frequency of IPSCs in POMC neurons,POMC neurons [2]; ghrelin 50 nM,increase in the frequency of IPSCs
same,"hyperpolarization of POMC neurons, mean","POMC neurons [3]; ghrelin 50 nM, three minutes, whole cell",1.47±0.7 mV
leptin: adipostatic hormone,effect on adjacent non-fluorescent ARC cells,[4],no effect on 5 of 13 adjacent non-fluorescent cells tested
same,inhibition of IPSCs in the presence of tetrodotoxin (TTX),POMC neurons [2],still inhibited IPSCs
same,decrease of frequency of GABAergic IPSCs,"POMC neurons [2]; 100 nM, leptin in 5 out of 15 cells, NPY in all 12 POMC cells tested",25%
same,time to depolarization after addition,POMC neurons [3]; leptin 0.1-100 nM,2 to 10 min
same,depolarization of POMC cells,"POMC neurons [3]; leptin 0.1-100 nM, 72 of 77 POMC cells",3-30 mV
same,reversal of small inward current,POMC neurons [5],approximately −20 mV
"Clc1cncc(N2CCNCC2)n1 [MK 212, 6-Chloro-2-(1-piperazinyl)pyrazine]",resting membrane potential of POMC neurons (depolarization),POMC neurons [3],depolarized POMC neurons
"NC1=N[C@H](O)[C@H]2[C@H]3O[C@]4(O)O[C@@H]([C@@H](O)[C@@]2(N1)[C@@H]4O)[C@]3(O)CO [TTX, tetrodotoxin]",large amplitude IPSCs,POMC neurons [2],abolished large IPSCs
neuropeptide Y [NPY],inhibition of IPSCs in the presence of tetrodotoxin (TTX),POMC neurons [2],still inhibited IPSCs
same,time to decrease of IPSC frequency,POMC neurons [2]; NPY 100 nM,≤ 3 min
same,hyperpolarization of POMC neurons (average),"POMC neurons [3]; NPY, n=3, all POMC neurons tested",9±6 mV
"N-acetyl (Leu^28, Leu^31) NPY (24-36) (Ac-LRHYLNLLTRQRY; ends and bridges not checked) [Y2A]",A-MSH release,hypothalamic explants,concomitant increase in A-MSH release
same,NPY release,hypothalamic explants,significantly decreased NPY release
same,reduction of frequency of IPSCs onto POMC neurons,"POMC neurons [2]; PYY3-36 (50 nM, FIG. 6c) n=13, Y2A n=8",44.4±9.3%
same,depolarization of POMC neurons,"POMC neurons [3]; whole cell, PYY3-36 (10 nM, FIG. 6a) n=22, 19 of 22 depolarized, Y2A n=9",8.7±1.8 mV
"Clc1cccc(N2CCNCC2)c1 [mCPP, 1-(3-Chlorophenyl)piperazine]",resting membrane potential of POMC neurons (depolarization),POMC neurons [3],depolarized POMC neurons
picrotoxin,IPSCs,POMC neurons [2],blocked all IPSCs
met-enkephalin (YGGFM),spontaneous action potential generation,POMC neurons [1],prevented spontaneous action potential generation
"CCNC(C)Cc1cccc(C(F)(F)F)c1 (stereo not drawn) [Fenfluramine, fenfluramine]",POMC neuron firing rate (frequency of action potentials),POMC neurons [1],two fold increase
same,POMC neuron firing rate (frequency of action potentials),POMC neurons [1]; listed as d-FEN,doubling
same,resting membrane potential of POMC neurons (depolarization),POMC neurons [3],depolarized POMC neurons
NCCc1c[nH]c2ccc(O)cc12 [serotonin],resting membrane potential of POMC neurons (depolarization),"POMC neurons [3]; serotonin receptor agonists bath-applied four minutes, whole cell, n=4-8 per dose",increased the resting membrane potential (depolarized)
D-Trp^8-γMSH,frequency of action potentials,POMC neurons [1]; D-Trp8-γMSH 7 nM,decreased the frequency of action potentials
same,increase of frequency of GABAergic IPSCs,"POMC neurons [2]; D-Trp8-γMSH 7 nM, 3 of 4 POMC neurons",280±90%
